Test results: patent US11298314B2, “Injectable composition for localized fat reduction without pain, edema, and side effects, and method for preparing same” (AMI PHARM CO., LTD., priority 2017, dated 2022)

Columns and labels:
[1] = system: tissues of the injected area (rat paw); test: H&E staining histological test (inflammation) of injected rat paw; assay type: in vivo, Sprague Dawley rats; settings: for Inflammation (H&E), BA % (w/v) 1.0: bile acid single composition 1.0% (w/v); for Inflammation (H&E), BA % (w/v) 2.5: bile acid single composition 2.5% (w/v); for degree of inflammation (H&E) in words: rats sacrificed at 3 hours, injected paw
Procedure: The tissues of the injected area were dissected, fixed with 10% formalin, and then the specimen was prepared and images were captured using an optical microscope. The degree of inflammation was evaluated as follows.

[2] = Formulation stability of PPC injectable preparations: property, transparency, particle size, pH; settings: for bile acid/PPC molar ratio below which a substantially stable formulation did not occur: PPC 5.0%; for bile acid concentration at which stable injectable preparations can be made: based on PPC 5.0%
paw of the rats = test: Rat paw edema; assay type: in vivo, Sprague Dawley rats; settings: for degree of edema in words: 2 hours after administration, rat paw; for degree of edema, 1 hour after administration / degree of edema, 2 hours after administration / degree of edema, Immediately after administration: 0.1 ml into rat paw
Procedure: (§1) To evaluate the degree of edema, each test compositions described above were injected into the paw of the rats. Specifically, male Sprague Dawley rats (6 weeks old) were purchased and used after one week of adaptation. The rats (body weight: 170˜200 g) were randomly selected and the thickness of the rat paw were measured with a caliper before the administration of the test compositions. In order to observe the edema, 0.1 ml of PBS and the various test compositions were administered to the paws of the rats. Measurements of the […] were performed by a caliper immediately before the injection, immediately after the injection, and 1 or 2 hours after the injection. In addition, when the thickness was measured, the skin lesion of the injection site was observed by photographing the sole of the paw (using a 4×4 cm scale).
The degree of edema was evaluated as 0 to 4 grades.

sole of the rat paws = test: Measurement of skin lesion (erythema) on rat paw; assay type: in vivo, Sprague Dawley rats; settings: for skin lesion (erythema) in words: 2 hours after administration;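 on grade of skin lesion (erythema), 1 hour after administration: grades − to ++++ mean no to extremely severe erythema versus before injection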;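 on grade of skin lesion (erythema), 2 hours after administration: grades − to ++++ mean no to extremely severe erythema versus before injection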;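 on grade of skin lesion (erythema), Immediately after administration: grades − to ++++ mean no to extremely severe erythema versus before injection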
Procedure: as §1
The grades of skin lesion were evaluated as 0 to 4 grades.

[3] = bile acid single composition 1.0% (w/v)
[4] = bile acid single composition 2.5% (w/v)
[5] = bile acid single composition 5.0% (w/v)
[6] = bile acid single composition 7.5% (w/v)

C[C@H](CCC(=O)O)[C@H]1CC[C@H]2[C@@H]3[C@H](O)C[C@@H]4C[C@H](O)CC[C@]4(C)[C@H]3CC[C@]12C [CDCA]
Inflammation (H&E), BA % (w/v) 1.0 ([1]; injected rat paw): ++ | Inflammation (H&E), BA % (w/v) 2.5 ([1]; injected rat paw): +++ | Inflammation (H&E), BA % (w/v) 5.0 ([1]; bile acid single composition 5.0% (w/v), injected rat paw): +++ | degree of inflammation (H&E) in words [1]: Moderate | bile acid/PPC molar ratio below which a substantially stable formulation did not occur [2]: less than 0.89 | bile acid concentration at which stable injectable preparations can be made [2]: ≥ 2.2% | degree of edema in words (paw of the rats; listed as CDCA 1.0%): Moderate | degree of edema in words (paw of the rats; listed as CDCA 2.5%): “severe” and “extremely severe” | degree of edema, 1 hour after administration (paw of the rats; [3]): +++ (severe edema [+++, (the degree of swelling was 40-60% compared to before the injection)]) | degree of edema, 2 hours after administration (paw of the rats; [3]): +++ (severe edema [+++, (the degree of swelling was 40-60% compared to before the injection)]) | degree of edema, Immediately after administration (paw of the rats; [3]): ++ (moderate edema [++, (the degree of swelling was 20-40% compared to before the injection)]) | degree of edema, 1 hour after administration (paw of the rats; [4]): +++ (severe edema [+++, (the degree of swelling was 40-60% compared to before the injection)]) | degree of edema, 2 hours after administration (paw of the rats; [4]): ++++ (extremely severe edema [++++, (the degree of swelling was 60% or more compared to before the injection)]) | degree of edema, Immediately after administration (paw of the rats; [4]): ++ (moderate edema [++, (the degree of swelling was 20-40% compared to before the injection)]) | degree of edema, 1 hour after administration (paw of the rats; [5]): ++++ (extremely severe edema [++++, (the degree of swelling was 60% or more compared to before the injection)]) | degree of edema, 2 hours after administration (paw of the rats; [5]): ++++ (extremely severe edema [++++, (the degree of swelling was 60% or more compared to before the injection)]) | degree of edema, Immediately after administration (paw of the rats; [5]): ++ (moderate edema [++, (the degree of swelling was 20-40% compared to before the injection)]) | degree of edema, 1 hour after administration (paw of the rats; [6]): ++++ (extremely severe edema [++++, (the degree of swelling was 60% or more compared to before the injection)]) | degree of edema, 2 hours after administration (paw of the rats; [6]): ++++ (extremely severe edema [++++, (the degree of swelling was 60% or more compared to before the injection)]) | degree of edema, Immediately after administration (paw of the rats; [6]): ++ (moderate edema [++, (the degree of swelling was 20-40% compared to before the injection)]) | skin lesion (erythema) in words (sole of the rat paws; listed as CDCA 1.0%): Moderate | skin lesion (erythema) in words (sole of the rat paws; listed as CDCA 2.5%): “severe” and “extremely severe” | grade of skin lesion (erythema), 1 hour after administration (sole of the rat paws; [3]): ++ | grade of skin lesion (erythema), 2 hours after administration (sole of the rat paws; [3]): ++ | grade of skin lesion (erythema), Immediately after administration (sole of the rat paws; [3]): + | grade of skin lesion (erythema), 1 hour after administration (sole of the rat paws; [4]): ++++ | grade of skin lesion (erythema), 2 hours after administration (sole of the rat paws; [4]): ++++ | grade of skin lesion (erythema), Immediately after administration (sole of the rat paws; [4]): ++ | grade of skin lesion (erythema), 1 hour after administration (sole of the rat paws; [5]): ++++ | grade of skin lesion (erythema), 2 hours after administration (sole of the rat paws; [5]): ++++ | grade of skin lesion (erythema), Immediately after administration (sole of the rat paws; [5]): ++ | grade of skin lesion (erythema), 1 hour after administration (sole of the rat paws; [6]): ++++ | grade of skin lesion (erythema), 2 hours after administration (sole of the rat paws; [6]): ++++ | grade of skin lesion (erythema), Immediately after administration (sole of the rat paws; [6]): ++

C[C@H](CCC(=O)NCC(=O)O)[C@H]1CC[C@H]2[C@@H]3CCC4C[C@H](O)CC[C@]4(C)[C@H]3C[C@H](O)[C@]12C (stereo partly drawn) [GDCA, 2-[[(4R)-4-[(3R,8R,9S,10S,12S,13R,14S,17R)-3,12-dihydroxy-10,13-dimethyl-2,3,4,5,6,7,8,9,11,12,14,15,16,17-tetradecahydro-1H-cyclopenta[a]phenanthren-17-yl]pentanoyl]amino]acetic acid]
Inflammation (H&E), BA % (w/v) 1.0 ([1]; injected rat paw): ++ | Inflammation (H&E), BA % (w/v) 2.5 ([1]; injected rat paw): +++ | degree of inflammation (H&E) in words [1]: Moderate | bile acid/PPC molar ratio below which a substantially stable formulation did not occur [2]: less than 0.87 | bile acid concentration at which stable injectable preparations can be made [2]: ≥ 2.4% | degree of edema in words (paw of the rats; listed as GDCA 1.0%): moderate | degree of edema in words (paw of the rats; listed as GDCA 2.5%): “severe” and “extremely severe” | degree of edema, 1 hour after administration (paw of the rats; [3]): +++ (severe edema [+++, (the degree of swelling was 40-60% compared to before the injection)]) | degree of edema, 2 hours after administration (paw of the rats; [3]): ++ (moderate edema [++, (the degree of swelling was 20-40% compared to before the injection)]) | degree of edema, Immediately after administration (paw of the rats; [3]): ++ (moderate edema [++, (the degree of swelling was 20-40% compared to before the injection)]) | degree of edema, 1 hour after administration (paw of the rats; [4]): +++ (severe edema [+++, (the degree of swelling was 40-60% compared to before the injection)]) | degree of edema, 2 hours after administration (paw of the rats; [4]): +++ (severe edema [+++, (the degree of swelling was 40-60% compared to before the injection)]) | degree of edema, Immediately after administration (paw of the rats; [4]): ++ (moderate edema [++, (the degree of swelling was 20-40% compared to before the injection)]) | degree of edema, 1 hour after administration (paw of the rats; [5]): ++++ (extremely severe edema [++++, (the degree of swelling was 60% or more compared to before the injection)]) | degree of edema, 2 hours after administration (paw of the rats; [5]): ++++ (extremely severe edema [++++, (the degree of swelling was 60% or more compared to before the injection)]) | degree of edema, Immediately after administration (paw of the rats; [5]): ++ (moderate edema [++, (the degree of swelling was 20-40% compared to before the injection)]) | degree of edema, 1 hour after administration (paw of the rats; [6]): ++++ (extremely severe edema [++++, (the degree of swelling was 60% or more compared to before the injection)]) | degree of edema, 2 hours after administration (paw of the rats; [6]): ++++ (extremely severe edema [++++, (the degree of swelling was 60% or more compared to before the injection)]) | degree of edema, Immediately after administration (paw of the rats; [6]): ++ (moderate edema [++, (the degree of swelling was 20-40% compared to before the injection)]) | skin lesion (erythema) in words (sole of the rat paws; listed as GDCA 1.0%): Moderate | skin lesion (erythema) in words (sole of the rat paws; listed as GDCA 2.5%): “severe” and “extremely severe” | grade of skin lesion (erythema), 1 hour after administration (sole of the rat paws; [3]): ++ | grade of skin lesion (erythema), 2 hours after administration (sole of the rat paws; [3]): ++ | grade of skin lesion (erythema), Immediately after administration (sole of the rat paws; [3]): ++ | grade of skin lesion (erythema), 1 hour after administration (sole of the rat paws; [4]): ++++ | grade of skin lesion (erythema), 2 hours after administration (sole of the rat paws; [4]): ++++ | grade of skin lesion (erythema), Immediately after administration (sole of the rat paws; [4]): ++ | grade of skin lesion (erythema), 1 hour after administration (sole of the rat paws; [5]): ++++ | grade of skin lesion (erythema), 2 hours after administration (sole of the rat paws; [5]): ++++ | grade of skin lesion (erythema), Immediately after administration (sole of the rat paws; [5]): ++ | grade of skin lesion (erythema), 1 hour after administration (sole of the rat paws; [6]): ++++ | grade of skin lesion (erythema), 2 hours after administration (sole of the rat paws; [6]): ++++ | grade of skin lesion (erythema), Immediately after administration (sole of the rat paws; [6]): ++

C[C@H](CCC(=O)O)[C@H]1CC[C@H]2[C@@H]3C[C@H](O)[C@@H]4C[C@H](O)CC[C@]4(C)[C@H]3CC[C@]12C [HDCA, (4R)-4-[(3R,5R,6S,8S,9S,10R,13R,14S,17R)-3,6-dihydroxy-10,13-dimethyl-2,3,4,5,6,7,8,9,11,12,14,15,16,17-tetradecahydro-1H-cyclopenta[a]phenanthren-17-yl]pentanoic acid]
Inflammation (H&E), BA % (w/v) 1.0 ([1]; injected rat paw): +++ | bile acid/PPC molar ratio below which a substantially stable formulation did not occur [2]: less than 0.95 | bile acid concentration at which stable injectable preparations can be made [2]: ≥ 2.3% | degree of edema in words (paw of the rats; listed as HDCA 2.5%): “severe” and “extremely severe” | degree of edema, 1 hour after administration (paw of the rats; [3]): ++ (moderate edema [++, (the degree of swelling was 20-40% compared to before the injection)]) | degree of edema, 2 hours after administration (paw of the rats; [3]): +++ (severe edema [+++, (the degree of swelling was 40-60% compared to before the injection)]) | degree of edema, Immediately after administration (paw of the rats; [3]): ++ (moderate edema [++, (the degree of swelling was 20-40% compared to before the injection)]) | degree of edema, 1 hour after administration (paw of the rats; [4]): ++ (moderate edema [++, (the degree of swelling was 20-40% compared to before the injection)]) | degree of edema, 2 hours after administration (paw of the rats; [4]): +++ (severe edema [+++, (the degree of swelling was 40-60% compared to before the injection)]) | degree of edema, Immediately after administration (paw of the rats; [4]): ++ (moderate edema [++, (the degree of swelling was 20-40% compared to before the injection)]) | degree of edema, 1 hour after administration (paw of the rats; [5]): ++++ (extremely severe edema [++++, (the degree of swelling was 60% or more compared to before the injection)]) | degree of edema, 2 hours after administration (paw of the rats; [5]): ++++ (extremely severe edema [++++, (the degree of swelling was 60% or more compared to before the injection)]) | degree of edema, Immediately after administration (paw of the rats; [5]): ++ (moderate edema [++, (the degree of swelling was 20-40% compared to before the injection)]) | degree of edema, 1 hour after administration (paw of the rats; [6]): ++++ (extremely severe edema [++++, (the degree of swelling was 60% or more compared to before the injection)]) | degree of edema, 2 hours after administration (paw of the rats; [6]): ++++ (extremely severe edema [++++, (the degree of swelling was 60% or more compared to before the injection)]) | degree of edema, Immediately after administration (paw of the rats; [6]): ++ (moderate edema [++, (the degree of swelling was 20-40% compared to before the injection)]) | skin lesion (erythema) in words (sole of the rat paws; listed as HDCA 1.0%): Mild | skin lesion (erythema) in words (sole of the rat paws; listed as HDCA 2.5%): “severe” and “extremely severe” | grade of skin lesion (erythema), 1 hour after administration (sole of the rat paws; [3]): + | grade of skin lesion (erythema), 2 hours after administration (sole of the rat paws; [3]): + | grade of skin lesion (erythema), Immediately after administration (sole of the rat paws; [3]): + | grade of skin lesion (erythema), 1 hour after administration (sole of the rat paws; [4]): +++ | grade of skin lesion (erythema), 2 hours after administration (sole of the rat paws; [4]): +++ | grade of skin lesion (erythema), Immediately after administration (sole of the rat paws; [4]): + | grade of skin lesion (erythema), 1 hour after administration (sole of the rat paws; [5]): ++++ | grade of skin lesion (erythema), 2 hours after administration (sole of the rat paws; [5]): ++++ | grade of skin lesion (erythema), Immediately after administration (sole of the rat paws; [5]): + | grade of skin lesion (erythema), 1 hour after administration (sole of the rat paws; [6]): ++++ | grade of skin lesion (erythema), 2 hours after administration (sole of the rat paws; [6]): ++++ | grade of skin lesion (erythema), Immediately after administration (sole of the rat paws; [6]): ++
